Values quoted from earlier work as cited in patent EP1586313A1, “Pharmaceutical composition with metoclopramide and process for its preparation” (The Jordanian Pharmaceutical Manufacturing Co. Ltd., priority 2004, dated 2005).

Conditions: reportedly

## CCN(CC)CCNC(=O)c1cc(Cl)c(N)cc1OC.Cl.O [metoclopramide, 4-amino-5-chloro-N-(2-diethylaminoethyl)-2-methoxybenzamide hydrochloride monohydrate]
  peak plasma metoclopramide concentrations associated with metoclopramide induced akathisia: greater than 120 ng/ml
